The values below come from patent US20050239813A1, “Pharmaceutical compositions comprising fk506 derivatives and their use for the treatment of allergic diseases” (Sucampo Pharmaceuticals Inc., priority 2002, published 2005).

In the assay the test system is Human patients with a history of allergy. In words: Allergen challenge of human patients after FK506 eye drops; ocular itching score. It is filed as in vivo. The procedure:
Human patients with a history of allergy were divided into 5 groups and treated in one eye with eye drop (placebo, 0.01% FK506, 0.03% FK506, 0.06% FK506 or 0.1% FK506), and the other eye with placebo. Each eye drop was administered 4 times per day for seven days and 16 hours after the final instillation, patients were administered allergen-containing eye drops at a concentration predetermined to cause a reaction in the patient. The one hundred patients having a baseline itching score of at lease 3, on a scale of 0 to 4, with 4 being most severe, were evaluated.

Molecules are shown by their SMILES.

Regarding `C=CC[C@@H]1/C=C(\C)C[C@H](C)C[C@H](OC)[C@H]2O[C@@](O)(C(=O)C(=O)N3CCCC[C@H]3C(=O)O[C@H](/C(C)=C/[C@@H]3CC[C@@H](O)[C@H](OC)C3)[C@H](C)[C@@H](O)CC1=O)[C@H](C)C[C@@H]2OC` [FK506, 17-allyl-1,14-dihydroxy-12-[2-(4-hydroxy-3-methoxycyclohexyl)-1-methylvinyl]-23,25-dimethoxy-13,19,21,27-tetramethyl-11,28-dioxa-4-azatricyclo[22.3.1.0^4,9]octacos-18-ene-2,3,10,16-tetraone], where the note is “3 minutes post challenge, all concentrations (0.01%, 0.03%, 0.06%, 0.1% eye drops), 4 times per day for seven days, challenge 16 hours after final instillation”, the “decrease from baseline itching score versus placebo” value was “statistically significant versus placebo”. Further, the “decrease from baseline itching score: dose response” value (eye drops 0.01%, 0.03%, 0.06% or 0.1% FK506, 4 times per day for seven days, allergen challenge 16 hours after final instillation, itching scale 0 to 4, FIG. 1) is “pronounced dose response”.
